Among the data in patent publication US8735406B2, “8-oxodihydropurine derivative” (Dainippon Sumitomo Pharma Co., Ltd., priority 2009, dated 2014) are inhibition and IC50 values, retold here.

Broadly, the inhibition is the drop in the measured response relative to a control, in per cent. What is called IC50 is the midpoint of a concentration-inhibition curve.

This experiment addresses T1, FAAH (Rattus norvegicus, UniProt P97612).
T1 construct: Preparation of Rat Brain Membranes Preparations (FAAH Enzyme Solution); from tissue; host or cells: rat cerebrum (brain membrane preparation)
T1 sequence (P97612 1-579): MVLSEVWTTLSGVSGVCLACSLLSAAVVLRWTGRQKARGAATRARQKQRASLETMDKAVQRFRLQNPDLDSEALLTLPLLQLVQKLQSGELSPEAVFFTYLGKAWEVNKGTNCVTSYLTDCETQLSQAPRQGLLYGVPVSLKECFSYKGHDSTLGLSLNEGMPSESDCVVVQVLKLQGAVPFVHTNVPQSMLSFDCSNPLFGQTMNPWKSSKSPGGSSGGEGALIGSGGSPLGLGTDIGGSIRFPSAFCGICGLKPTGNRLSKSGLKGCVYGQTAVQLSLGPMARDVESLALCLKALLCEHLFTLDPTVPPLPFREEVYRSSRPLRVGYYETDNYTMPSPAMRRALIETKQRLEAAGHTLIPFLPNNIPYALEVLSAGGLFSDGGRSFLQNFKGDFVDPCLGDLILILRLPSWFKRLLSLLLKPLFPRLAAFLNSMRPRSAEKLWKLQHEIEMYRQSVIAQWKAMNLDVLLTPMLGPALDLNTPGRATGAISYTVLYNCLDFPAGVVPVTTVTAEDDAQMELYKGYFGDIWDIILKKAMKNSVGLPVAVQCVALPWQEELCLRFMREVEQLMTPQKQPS
The experiment can be described thus: Determination of FAAH inhibitory activity in rat (rat brain membrane preparations, [3H]-anandamide hydrolysis). Format: biochemical. The note with it: for inhibition at 0.1 µM: read-out: FAAH Inhibition, Inhibition Rate at 100 nM; for IC50: test substance 0.1 nM to 1 μM, read-out: FAAH Inhibition IC50. The gist of the method: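 Compounds tested from 0.1 nM to 1 μM to derive IC50 against FAAH hydrolysis in rat brain membrane preparations (100 μg/mL). A 10-min 37 °C preincubation was followed by 10 min with [3H]-anandamide (2 nM) mixed with 2 μM unlabelled anandamide. Radioactive ethanolamine was extracted into the water/methanol layer and counted.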

Where [1] appears, read: rat brain membrane preparations, 100 nM test substance.
[2] abbreviates: rat brain membrane preparations.

Read-outs that look alike come from different tables or passages of the source.

As to `COc1cccc(-c2ncc3c(n2)n(C)c(=O)n3C(=O)N(C)CCOc2ccc(F)cc2)c1` [Example 91, N-[2-(4-Fluorophenoxy)ethyl]-2-(3-methoxyphenyl)-N,9-dimethyl-8-oxo-8,9-dihydro-7H-purine-7-carboxamide], the inhibition at 0.1 µM under setting [1] is 103%. Besides, the IC50 under setting [2] was 1 nM.
As to `COc1cccc(-c2ncc3c(n2)n(C)c(=O)n3C(=O)N(C)CCc2ccc(C(F)(F)F)cc2)c1` [Example 92, 2-(3-Methoxyphenyl)-N,9-dimethyl-8-oxo-N-{2-[4-(trifluoromethyl)phenyl]ethyl}-8,9-dihydro-7H-purine-7-carboxamide], the inhibition at 0.1 µM under setting [1] came to 103%. In addition, the IC50 under setting [2] is 4 nM.
Regarding `COc1ccc(CCN(C)C(=O)n2c(=O)n(C)c3nc(-c4cccc(OC)c4)ncc32)cc1` [Example 93, 2-(3-Methoxyphenyl)-N-[2-(4-methoxyphenyl)ethyl]-N,9-dimethyl-8-oxo-8,9-dihydro-7H-purine-7-carboxamide], the inhibition at 0.1 µM was 100%. Under setting [2], the IC50 was 5 nM.
As for `COc1cccc(-c2ncc3c(n2)n(C)c(=O)n3C(=O)N2CC=C(/C=C/c3ccc(Cl)cc3)CC2)c1` [Example 94, 7-({4-[(E)-2-(4-Chlorophenyl)ethenyl]-3,6-dihydropyridin-1(2H)-yl}carbonyl)-2-(3-methoxyphenyl)-9-methyl-7,9-dihydro-8H-purine-8-one], the inhibition at 0.1 µM under setting [1] was determined as 101%. In addition, the IC50 under setting [2] worked out at 7 nM.
With `COc1cccc(-c2ncc3c(n2)n(C)c(=O)n3C(=O)N2CC=C(/C=C/c3ccc(F)cc3)CC2)c1` [Example 95, 7-({4-[(E)-2-(4-Fluorophenyl)ethenyl]-3,6-dihydropyridin-1(2H)-yl}carbonyl)-2-(3-methoxyphenyl)-9-methyl-7,9-dihydro-8H-purine-8-one], the inhibition at 0.1 µM under setting [1] was determined as 101%. Moreover, the IC50 under setting [2] came out at 3 nM.
For `COc1cccc(-c2ncc3c(n2)n(C)c(=O)n3C(=O)N2CCC(CCc3ccc(F)cc3)CC2)c1` [Example 96, 7-({4-[2-(4-Fluorophenyl)ethyl]piperidin-1-yl}carbonyl)-2-(3-methoxyphenyl)-9-methyl-7,9-dihydro-8H-purine 8-one], the inhibition at 0.1 µM under setting [1] was 100%. Besides, the IC50 under setting [2] was determined as 6 nM.
For the molecule `COc1cccc(-c2ncc3c(n2)n(C)c(=O)n3C(=O)N2CCN(C3CCCCC3)CC2)c1` [Example 97, 7-[(4-Cyclohexylpiperazin-1-yl)carbonyl]-2-(3-methoxyphenyl)-9-methyl-7,9-dihydro-8H-purine-8-one], the inhibition at 0.1 µM under setting [1] amounted to 99%. Moreover, under setting [2], the IC50 came to 37 nM.
Consider `COc1cccc(-c2ncc3c(n2)n(C)c(=O)n3C(=O)N2CCN(C3CCCC3)CC2)c1` [Example 98, 7-[(4-Cyclopentylpiperazin-1-yl)carbonyl]-2-(3-methoxyphenyl)-9-methyl-7,9-dihydro-8H-purine-8-one], for which the inhibition at 0.1 µM under setting [1] turned out to be 93%. In addition, the IC50 under setting [2] worked out at 40 nM.
On to `COc1cccc(-c2ncc3c(n2)n(C)c(=O)n3C(=O)N2CCN(CC(F)(F)F)CC2)c1` [Example 99, 2-(3-Methoxyphenyl)-9-methyl-7-{[4-(2,2,2-trifluoroethyl)piperazin-1-yl]carbonyl}-7,9-dihydro-8H-purine-8-one], for which the inhibition at 0.1 µM under setting [1] came out at 100%. Besides, the IC50 under setting [2] was determined as 7 nM.
With `COc1cccc(-c2ncc3c(n2)n(C)c(=O)n3C(=O)N2CCN(CCC3CCCCC3)CC2)c1` [Example 100, 7-{[4-(2-Cyclohexylethyl)piperazin-1-yl]carbonyl}-2-(3-methoxyphenyl)-9-methyl-7,9-dihydro-8H-purine-8-one], the inhibition at 0.1 µM under setting [1] was determined as 100%. Moreover, the IC50 under setting [2] was 9 nM.
In the case of `COc1cccc(-c2ncc3c(n2)n(C)c(=O)n3C(=O)N2CCC(COc3ccccc3)CC2)c1` [Example 101, 2-(3-Methoxyphenyl)-9-methyl-7-{[4-(phenoxymethyl)piperidin-1-yl]carbonyl}-7,9-dihydro-8H-purine-8-one], under setting [1], the inhibition at 0.1 µM turned out to be 102%. The IC50 under setting [2] amounted to 7 nM.
